We go through twelve compounds from patent US11840499B2, “Biobased-fatty acid arginates” (priority 2020, dated 2023).

Data set [1] relates to Gram-negative Escherichia coli (ATCC 700728). Put plainly: microbe, parasite or virus in culture. It counts as cell-based. As to conditions: for MIC / MBC: E. coli; for MIC: lowest concentration with no color change (no active growth); for MBC: no viable growth on TSA, 37° C., 24 h. The procedure:
(§1) Antimicrobial activity studies were performed using standard methods. For all compounds, at least 3 independent replicates of quadruplicate tests were conducted. The minimum inhibitory concentration (MIC) was determined as the lowest test compound concentration for which no color change (no active growth) occurred. Minimum bactericidal concentration (MBC) was determined by spreading 100 μl from each growth-negative well onto TSA and incubating at 37° C. for 24 h. MBC was the […] where no viable growth occurred.

The test system of data set [2] is Gram-positive Listeria innocua (ATCC 33090). Briefly: Antimicrobial activity (MIC/MBC) against Listeria innocua. It counts as cell-based. The protocol:
as §1

Data set [3] in a line: Surfactant properties: surface tension by drop image method, CMC. The settings on record: aqueous solution. It is filed as physicochemical. The protocol: Samples of the analyte were weighed and dissolved in distilled water to make a 10 mM stock solution. The stock solution was then subsequently diluted to make 5 mM, 1 mM, 0.5 mM, 0.25 mM, 0.125 mM, and 0.0625 mM solutions. The series of solutions were used to measure the surface tension using a drop image method with a surface tension instrument. Measurement for each sample was done in triplicate and the average value was calculated. Critical micelle concentration (CMC) is the concentration above which micelles form in the surfactant solution.

The mark [4] stands for this setting: L. innocua, lowest concentration with no color change (no active growth).
Where [5] appears, read: L. innocua, no viable growth on TSA, 37° C., 24 h.
The mark [6] stands for this setting: Escherichia coli, ATCC700728, read-out: MIC.
The mark [7] stands for this setting: Escherichia coli, ATCC700728, read-out: MBC.
Setting [8] is: Listeria innocua, ATCC33090, 24 h.

Read-outs that look alike come from different tables or passages of the source.

In the case of Isooleic arginate, the MIC is on record as greater than 232.7 ppm in data set [1] and 1.8 ppm in data set [2] (setting [4]). Also, the MBC in data set [1] is given as greater than 232.7 ppm; in data set [2] (setting [5]), 1.8 ppm.

Take Isooleic acid: the MIC in data set [1] and in data set [2] (setting [4]) was greater than 232.7 ppm throughout. Also, the MBC in data set [1] and in data set [2] (setting [5]) was greater than 232.7 ppm each time.

Consider `N=C(N)NCCC[C@H](N)C(=O)O` [L-arginine (commercial), L-arginine], for which the MIC in data set [1] (setting [6]) was greater than 233 mg/L; in data set [2] (setting [4]) it was greater than 232.7 ppm; in data set [2] (Listeria innocua, ATCC33090), greater than 233 mg/L. The MBC is greater than 233 mg/L in data set [1] (setting [7]), greater than 232.7 ppm in data set [2] (setting [5]) and greater than 233 mg/L in data set [2] (setting [8]).

Take Oleic phenol arginate: the MIC in data set [1] is greater than 232.7 ppm; in data set [2] (setting [4]), 1.2 ppm. For the same compound, the MBC is recorded as greater than 232.7 ppm in data set [1] and 5.0 ppm in data set [2] (setting [5]).

For the compound Isostearic arginate, the values for the MIC in data set [1] and in data set [2] (setting [4]) were greater than 232.7 ppm and 3.6 ppm, respectively. Also, the figures for the MBC in data set [1] and in data set [2] (setting [5]) were greater than 232.7 ppm and 7.3 ppm, respectively.

Take `CCOC(=O)[C@@H](N)CCCNC(=N)N.Cl.Cl` [L-arginine ethyl ester dihydrochloride]: the MIC in data set [1] (setting [6]) is greater than 233 mg/L; in data set [2] (Listeria innocua, ATCC33090), greater than 233 mg/L. Besides, the MBC in data set [1] (setting [7]) and in data set [2] (setting [8]) was greater than 233 mg/L in each case.

On to `CCCCCCCCCCCCCCCCCC(=O)N[C@@H](CCCNC(=N)N)C(=O)OCC` [Stearic arginate], for which the figures for the MIC in data set [1] and in data set [2] (setting [4]) were greater than 232.7 ppm and 14.5 ppm, respectively. Also, the MBC in data set [1] is greater than 232.7 ppm; in data set [2] (setting [5]) it was 29.1 ppm.

Regarding Soy thymol arginate, the results for the MIC in data set [1] and in data set [2] (setting [4]) were greater than 232.7 ppm and 3.6 ppm, respectively. Moreover, the MBC is recorded as greater than 232.7 ppm in data set [1] and 14.5 ppm in data set [2] (setting [5]).

Turning to `CCCCCCCCCCCC(=O)N[C@@H](CCCNC(=N)N)C(=O)OCC.Cl` [Ethyl lauroyl arginate, ethyl-N^α-lauroyl-L-arginate HCl, reference compound], the MIC in data set [1] (setting [6]) turned out to be 7.3 mg/L; in data set [2] (Listeria innocua, ATCC33090, L. innocua, lowest concentration with no color change (no active growth), read-out: MIC), 7.3 mg/L. In addition, the MBC in data set [1] (setting [7]) was found to be 7.3 mg/L; in data set [2] (Listeria innocua, ATCC33090, L. innocua, no viable growth on TSA, 37° C., 24 h, read-out: MBC), 14.5 mg/L.

As to `CCCCCCCCCCCCOS(=O)(=O)[O-].[Na+]` [SDS], the “critical micelle concentration (CMC), compared to LAE” value in data set [3] is reported as “much higher”. For the same compound, the “surface tension level reached with increasing surfactant concentration” value in data set [3] (0.0625-10 mM) is 38 mN/m.

`CCCCCCCC/C=C\CCCCCCCC(=O)N[C@@H](CCCNC(=N)N)C(=O)OCC` [Oleic arginate]: the MIC came out at 116.4 ppm in data set [1] and 3.6 ppm in data set [2] (setting [4]). The MBC in data set [1] was found to be 116.4 ppm; in data set [2] (setting [5]) it was 3.6 ppm. Also, the “antimicrobial activity (in words)” value in data set [1] (Escherichia coli (ATCC 700728)) is listed as “weak activity”.

`CCCCCCCC/C=C\CCCCCCCC(=O)O` [Oleic acid]: the MIC in data set [1] (setting [6]) is greater than 233 mg/L; in data set [2] (setting [4]) it was greater than 232.7 ppm; in data set [2] (Listeria innocua, ATCC33090) it was greater than 233 mg/L. In addition, the MBC in data set [1] (setting [7]) is greater than 233 mg/L; in data set [2] (setting [5]), greater than 232.7 ppm; in data set [2] (setting [8]), greater than 233 mg/L.
